Laboratory results reported in patent US20130085105A1, “Transdermal Administration Of Peptides” (The Provost, Fellows and Scholars of the College of Holy …, priority 2010, published 2013).

Key:
[1] = In vitro transdermal permeation, diffusion cell, hairless mouse skin; format: in vitro ADME, hairless mice
Text: The abdominal skin from male hairless mice (mice of the HRS strain carrying a mutant Hr gene (hr/hr)) aged 6-8 weeks was cleaned of any subcutaneous fat with blood vessels while maintaining the integrity of the viable epidermis and SC. The excised skin was used immediately after preparation and was not stored prior to use.
A custom made finite dosing diffusion cell (AGB Scientific, Dublin, Ireland, FIG. 1) based upon and modified from the Keshary-Chien type diffusion cell was used for in vitro permeation studies.
Three to five diffusion cells were used in each permeation experiment and monitoring was performed over a 48 hour period. The cells were linked in series to a thermostatically controlled circulation bath set at 35° C. to mimic human skin surface temperature. Each cell was placed on a stir-plate set at a defined stirring rate of 1,000 rpm. The surface area for permeation provided by each cell was 3.14 cm^2.
Data collected from each permeation study included:
1) the average maximum flux obtained in 48 hours (Jmax),
2) the total absorption characterized as the total weight of peptide delivered transdermally into the receiver compartment over a 48 hour period,
3) the lag time to detectable flux which was equivalent to the latest sampling time at which no peptide was detectable by HPLC analysis of the receiver solution, and
4) an equivalent 48-hour steady state flux was determined by obtaining the slope of the best-fit line for a plot of cumulative flux per unit area versus time (described by McDaid, D. M. et al., Int. J. Pharm., 133:71-83, 1996).
Fresh hairless mouse skin samples or fresh or freshly thawed pig skin samples were mounted onto the diffusion cell with the SC topmost and in contact with the donor system. A rubber or plastic ring was placed on top of the skin sample to secure it in position. The combination of the diffusion cell top, the skin and the rubber ring was securely fastened together by means of a threaded cap. A recorded volume of receiver solution was added to the receiver compartment and maintained at 35° C. The receiver solution was 60/40 (v/v) PBS/propylene glycol (pH 7.1). The propylene glycol fraction was used to increase the solubility of the somatostatin-fatty acid salts. Previous work reported by Morgan et al. (J. Pharm. Sci., 87:1213-1218, 1998) has shown that a 50/50 water/propylene glycol receptor solution had no detrimental effect on the barrier integrity of both hairless mouse and porcine skin.
The receiver solution was allowed to equilibrate at 35° C. for 30 minutes. […] A narrow-bore hypodermic needle was used to withdraw 1 ml samples from the receiver compartment via the sampling port; at each sampling time, an equal volume of drug-free receiver solution was immediately added back to the receiver compartment. Samples were analyzed by HPLC.
HPLC determination of peptide content in the receiver solution along with the known surface area of skin used (3.14 cm^2) allowed for calculation of transdermal flux (in units of μg/cm^2/hr) for each time point. Panels 1 and 2 of FIG. 2 show flux […] profiles for the myristate, octanoate, decanoate, linoleate, nonanote, acetate and laurate […]
Once lead candidate somatostatin-fatty acid salts had been selected on the basis of in vitro permeation in a DMSO solution, the effect of different solvents and penetration enhancers on permeation was assessed. The concentration of the donor solution corresponded to 5 mg/ml free base peptide for all experiments and all donor solutions were equilibrated at 37° C. for one hour prior to use. These experiments were carried out using hairless mouse skin and pigskin barriers.

[2] = Partition coefficients n-octanol/deionized water and n-octanol/PBS; format: physicochemical; details: 24 hours; for Log KOPBS / O/PBS Coefficient (KOPBS): n-octanol/PBS pH 7.4, 37° C.; for Log KOW / O/W Coefficient (KOW): n-octanol/deionized water, 37° C.
Description: The partition coefficients for all somatostatin-fatty acid salts in either n-octanol/deionized water or n-octanol/PBS (pH 7.4) were determined. The partition coefficient is the concentration of Compound A or Compound B in the n-octanol phase divided by the concentration in the aqueous or PBS phase.
An accurately weighed sample of each salt was placed into 4 ml HPLC vials sealed with caps containing pierceable silicone septa and dissolved in 2 ml n-octanol. Two ml of either deionized water or PBS were added to each sample; the vials were vortexed vigorously and incubated at 37° C. with agitation for 24 hours in a shaker-incubator at 400 rpm.
Following incubation, two samples were withdrawn from each vial. Once the layers had fully partitioned, a syringe was used to draw a sample of the aqueous phase or the n-octanol phase. Samples from each phase were diluted appropriately with deionized or methanol prior to HPLC analysis.

[3] = 4.3 mg/ml in DMSO +1% (v/v) oleic acid
[4] = donor DMSO, approx. 5 mg/ml free base peptide (4.9 mg/ml Compound A oleate, 5.2 mg/ml Compound A acetate)
[5] = donor DMSO, approx. 5 mg/ml free base peptide (4.9 mg/ml Compound A oleate, 5.2 mg/ml Compound A acetate), 48 hr

| Molecule | Jmax [1, 3] | Jss [1, 3] | Lag Time [1, 3] | Total Absorption [1, 3] | effect of 1% (v/v) free oleic acid on flux ([1]; donor DMSO) | Lag Time [1, 4] | Total Absorption [1, 4] | Jmax [1, 5] | Jss [1, 5] | Log KOPBS [2] | O/PBS Coefficient (KOPBS) [2] | Log KOW [2] | O/W Coefficient (KOW) [2] |
| --- | --- | --- | --- | --- | --- | --- | --- | --- | --- | --- | --- | --- | --- |
| CC(C)[C@@H]1NC(=O)[C@H](CCCCN)NC(=O)[C@@H](Cc2c[nH]c3ccccc23)NC(=O)[C@H](Cc2ccc(O)cc2)NC(=O)[C@@H](NC(=O)[C@H](N)Cc2ccc3ccccc3c2)CSSC[C@@H](C(=O)N[C@H](C(N)=O)[C@@H](C)O)NC1=O [Compound A di-acetate, D-2-Nal-c(Cys-Tyr-D-Trp-Lys-Val-Cys)-Thr-NH2, reference compound] | 53.576 μg/cm^2/hr | 1.873 μg/cm^2/hr | 0.0 h | 387.78 μg/48 hr | increase of flux | 29.5 h | 48.08 μg/48 hr | 0.320 μg/cm^2/hr | 0.240 μg/cm^2/hr | – | – | – | – |
| D-2-Nal-c(Cys-Tyr-D-Trp-Lys-Val-Cys)-Thr-NH2 [Compound A di-decanoate] | – | – | – | – | – | – | – | – | – | 0.844 | 6.99 | 2.325 | 211.53 |
| D-2-Nal-c(Cys-Tyr-D-Trp-Lys-Val-Cys)-Thr-NH2 [Compound A di-laurate] | – | – | – | – | – | – | – | – | – | 0.854 | 7.15 | 2.943 | 876.40 |
| D-2-Nal-c(Cys-Tyr-D-Trp-Lys-Val-Cys)-Thr-NH2 [Compound A di-linoleate] | – | – | – | – | – | – | – | – | – | 0.866 | 7.35 | 1.917 | 82.52 |
| D-2-Nal-c(Cys-Tyr-D-Trp-Lys-Val-Cys)-Thr-NH2 [Compound A di-myristate] | – | – | – | – | – | – | – | – | – | 0.806 | 6.40 | 2.610 | 407.50 |
| D-2-Nal-c(Cys-Tyr-D-Trp-Lys-Val-Cys)-Thr-NH2 [Compound A di-nonanoate] | – | – | – | – | – | – | – | – | – | 0.811 | 6.47 | 2.723 | 528.50 |
| D-2-Nal-c(Cys-Tyr-D-Trp-Lys-Val-Cys)-Thr-NH2 [Compound A di-octanoate] | – | – | – | – | – | – | – | – | – | 0.827 | 6.71 | 2.794 | 622.86 |
| [4-(2-hydroxyethyl)]-1-piperazinylacetyl-D-Phe-c(Cys-Tyr-D-Trp-Lys-Abu-Cys)-Thr-NH2 [Compound B di-acetate] | – | – | – | – | – | – | – | – | – | −2.000 | 0.01 | −2.000 | 0.01 |
